From PMC6155662, “Trypanocidal Activity of Quinoxaline 1,4 Di-N-oxide Derivatives as Trypanothione Reductase Inhibitors” (Molecules : A Journal of Synthetic Chemistry and Natural …, 2017) come the findings set out here.

Data set [1] can be described thus: Cytotoxicity assay (Alamar Blue) on macrophages. The format is cell-based, murine. Particulars: mouse, J774A.1 macrophages, mean and SD of triplicate. The procedure: The murine macrophage cell line J774.A1 was maintained in culture flasks with RPMI 1640 medium supplemented with 10% FBS, 1% MEM-NEAA medium (Gibco) and 100 U/mL antibiotic-antifungal mixture (Gibco). Cells were incubated at 37 °C with 5% CO2 and humidity. Trypsinized J774.A1 macrophages were washed and viability was assessed by the trypan blue dye (Sigma-Aldrich, Toluca, Edo de Mexico, Mexico) exclusion assay. In a 96-well microplate, 50,000 macrophages were seeded per well and a dose-response assay was performed. Compounds were evaluated using six-fold serial dilutions ranging from 100 µg/mL to 0.3 µg/mL of final concentration. Each compound was tested in triplicate. After 20 h incubation, Alamar Blue was added (10% v/v) and cells were incubated for an additional 4 h period. Results were obtained as previously described and CC50 was calculated. As a negative control of cytotoxicity, cells were incubated only in the presence of 0.1% DMSO [39, 40].
For orientation: The colour change of resazurin is a common sign of viable cells or microbes.

Data set [2] has as its target T1, recombinant human glutathione reductase (GR) (Homo sapiens, UniProt P00390).
T1 sequence (P00390 44-522): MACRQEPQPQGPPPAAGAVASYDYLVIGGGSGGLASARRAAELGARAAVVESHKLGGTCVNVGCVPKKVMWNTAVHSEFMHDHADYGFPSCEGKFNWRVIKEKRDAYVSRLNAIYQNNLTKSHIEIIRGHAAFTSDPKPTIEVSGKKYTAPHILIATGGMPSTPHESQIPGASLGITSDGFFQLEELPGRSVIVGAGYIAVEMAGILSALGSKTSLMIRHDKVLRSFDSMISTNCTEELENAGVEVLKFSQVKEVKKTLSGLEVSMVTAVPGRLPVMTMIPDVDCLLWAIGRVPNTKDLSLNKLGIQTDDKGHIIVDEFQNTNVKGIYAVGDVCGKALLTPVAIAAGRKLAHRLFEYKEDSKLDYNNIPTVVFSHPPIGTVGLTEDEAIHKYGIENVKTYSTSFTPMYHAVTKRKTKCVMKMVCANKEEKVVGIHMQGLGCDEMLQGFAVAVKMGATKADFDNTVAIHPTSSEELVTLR
Kind of data set: GR enzyme inhibition (NADPH consumption at 340 nm). The data set is classed as biochemical. The conditions noted are these: inhibitor 5-60 μM; 100 µM GSSG; read-out: IC50 against hGR. The protocol:
Trypanothione disulfide (TS2) and recombinant T. cruzi TR were prepared following published procedures. Recombinant human glutathione reductase (GR) was kindly provided by Dr. Heiner Schirmer, Heidelberg Germany. Stock solutions (5 mM) of the inhibitors were prepared in DMSO. The kinetic analyses were conducted using a Jasco V650 spectrophotometer. All enzymatic tests were performed in polystyrene optical cuvettes (10 × 4 × 45 mm). TR activity was measured at 25 °C in a total volume of 1 mL TR assay buffer (40 mM HEPES, 1 mM EDTA, pH 7.5 [47]) containing 100 μM NADPH and 5–10 mU enzyme in the absence and presence of the inhibitor. Each assay contained a total of 5% DMSO. The reaction was started by adding TS2 and NADPH consumption was followed at 340 nm.
GR activity was measured at 25 °C in a total volume of 1 mL GR assay buffer (20.5 mM KH2PO4, 26.5 mM K2HPO4, 200 mM KCl, 1 mM EDTA, pH 6.9). The assays contained 100 µM NADPH and 5–10 mU GR and varying concentrations of the inhibitor. The reaction was started by adding 100 µM GSSG and the absorption decrease was followed at 340 nm.
Five compound concentrations were used ranging from 100–5 μM. […] IC50 values were calculated using the four-parameter equation model 205 and the option “unlock” from the XLfit add-in (IDBS, Guildford, United Kingdom) for Excel (Microsoft Corporation, Redmond, WA, USA).

By CC50 is commonly meant the concentration that lowers cell viability or growth by half. Low readings indicate harm at low concentration, high ones better tolerance by the cells. The IC50 is the concentration needed to halve the response being measured. In the case of `CC(C)OC(=O)c1ccc2c(c1)[n+]([O-])c(C(=O)C(C)C)c(C(F)(F)F)[n+]2[O-]` [Compound T-085, Isopropyl 2-isobutyryl-3-trifluoromethylquinoxaline-7-carboxylate 1,4-di-N-oxide], the 50% cytotoxic concentration (CC50) at 24 h in data set [1] is 10.4 ± 0.8 µM. For the same compound, the IC50 in data set [2] was found to be 50 µM.
